# Test results taken from publication PMC11921344, “Antimicrobial peptide DiPGLa-H exhibits the most outstanding anti-infective activity among the PGLa variants based on a systematic comparison” (Applied and Environmental Microbiology, 2025).
# Where no end group is shown, it is not given here.
# How the values were obtained:
# S. aureus Mu50 infection = assay: Mouse abdominal infection model; assay type: in vivo, C57BL/6 mice; settings: for number of mice that survived: Mu50+DiPGLa-H
# Method: (§1) Six-to-eight-week-old C57BL/6 male mice were selected for the experiment and housed in cages under specific pathogen-free conditions with water and laboratory mouse chow. Each strain was divided into three groups, and each group and the second group were required to be injected intraperitoneally with a lethal amount of bacterial fluid with a working fluid concentration of 64 µg/mL of DiPGLa-H, and the third group was injected with PBS. […] Then homogenized and serially diluted with PBS to 10^7 times. 100 µL of the gradient dilution was applied to the TSA plate, which was subsequently incubated at 37°C overnight and counted the next day for survival analysis using GraphPad Prism software. The protocol and use of animals were approved by the Institutional Animal Care and Use Committee of the Northwest A&F University.
# E. coli K88 infection = assay: Mouse abdominal infection model; assay type: in vivo, C57BL/6 mice; settings: for number of mice that survived: K88+DiPGLa-H
# Method: as §1
# E. coli K88 [1] = assay: Heat, pH and salt sensitivity assay (MIC); assay type: cell-based, Escherichia coli; settings: salts of Table S2
# Method: To assess the stability of the peptides in physiological conditions, the peptides were incubated with E. coli K88 and S. aureus Mu50 in the presence of salts (150 mM NaCl, 4.5 mM KCl, 6 µM NH4Cl, 8 µM ZnCl2, 1 mM MgCl2, 4 µM FeCl3, and 2.5 µM CaCl2) in accordance with a previously reported protocol. To determine the thermal stability of the peptides, the peptides were pretreated at 100°C for 30 min, 60 min, and 90 min and cooled on ice for 10 min. The effect of acid and base on the antimicrobial activity was measured by treating the peptides for 2 h at pH of 2, 4, 10, and 12 in 10 mM sodium phosphate buffer adjusted with HCl or NaOH.
# P. aeruginosa ATCC27853 = assay type: cell-based, Pseudomonas aeruginosa
# Method: The antibacterial activity was evaluated using a standard MIC and MBC assay according to the National Committee for Clinical Laboratory Standards (NCCLS). MIC, MBC assay, and time-kill curves for the optimal peptide are provided in the Supplementary Materials.
# Antimicrobial Activity Assays. The antibacterial activity of the peptides was determined using a method designed from the National Committee for Clinical Laboratory Standards (NCCLS) in the United States. All the strains used in the experiment are preserved in the laboratory. Briefly, log phase bacterial cells were diluted in MHB to a final concentration of 0.5-1x10^5 CFU/mL. Subsequently, 50μL of different concentrations of polypeptides were incubated with 50 μL of bacterial solution in sterile 96-well plates. In the minimum inhibitory concentration (MIC) assay, the plate was incubated at 37°C for 24 h, and the minimum inhibitory concentration (MIC) was determined by the absorbance at 492 nm of the microplate reader, and the minimum inhibitory concentration (MIC) inhibited 95% of bacteria grow. Determination of minimum bactericidal concentration: the plate was incubated at 37°C for 4 hours, 50 μL of the mixture was taken out of each well, diluted with an appropriate amount of PBS, smeared on the agar plate, and cultured overnight. Colonies were counted and the initial CFU/well was retrospectively calculated the following day. The lowest concentration of peptide that kills 99.9% of bacterial cells is the minimum bactericidal concentration (µM), Each test was replicated at least 3 times.
# [2] = test system: E. coli K88 outer membrane; assay: Outer membrane integrity assay (NPN uptake); assay type: cell-based, Escherichia coli
# Method: The outer and inner membrane integrity of bacterial cells treated with peptides was assessed using NPN and PI staining, respectively. Full details are provided in the Supplementary Materials.
# Membrane permeabilization. Outer membrane integrity assay. The fluorescent probe NPN (Sigma-Aldrich, catalog no. 104043, ≥98%) was used to assess the outer membrane integrity of DiPGLa-H or mucin-treated E. coli K88. Briefly, log-medium E. coli K88 cells (OD600 = 0.2) were incubated with NPN (10 μM) in 5 mM HEPES buffer (pH 7.4, containing 5 mM glucose) for 30 min, and background fluorescence was recorded for subtraction. (excitation λ = 350 nm, emission λ = 420 nm) using a microplate reader (Varioskan Flash; Thermo, America). Subsequently, 100 μL of cell suspension was mixed with an equal volume of peptide solutions ranging in concentration from 4 to 64 μM in a sterile 96-well black plate. Fluorescence was recorded over time until no further increase in fluorescence was detected. Each test was performed independently, in duplicate, with three biological replicates, and results were converted to percent NPN uptake using the equation. NPN uptake (%) = (Fobs – Fbuffer)/ (Fpositive – Fbuffer) ×100%.
# where Fobs is the observed fluorescence at a given peptide concentration, Fbuffer is the fluorescence of the buffer, and Fpositive is the fluorescence of NPN with microbial cells upon addition of 10 μg/mL polymyxin B (Sigma), which was used as a positive control because of its strong outer membrane-permeabilizing property. Untreated cell suspension served as the negative control.
# E. coli K88 [3] = assay: ROS generation (DCFH-DA); assay type: cell-based, Escherichia coli; settings: 8 µM DiPGLa-H, 1 h 37°C, DCFH-DA 10 µM
# Method: 2′,7′-Dichlorofluorescin diacetate (DCFH-DA) was used to determine the intracellular production of ROS as previously described. S. aureus Mu50 and E. coli K88 cells were diluted until OD600 = 0.4 and incubated in different concentrations of peptide at 37°C for 1 h. Next, the mixed solution was incubated with 10 µM DCFH-DA at 37°C for 1 h. The fluorescence (excitation wavelength = 488 nm, emission wavelength = 525 nm) was monitored with an Infinite 200 pro fluorescence spectrophotometer (Tecan, China). Each test was measured in triplicate and tested twice.
# [4] = heart, liver, spleen, 1 day after infection, 5 mice per group
substance,measurement,setting,value
KIAKVALKALKIAKVALKAL-NH2 (C-terminus assumed) [DiPGLa-H],increase of survival rate of mice,"S. aureus Mu50 infection; C57BL/6 male mice, intraperitoneal lethal Mu50, DiPGLa-H working concentration 64 µg/mL, 16 mice per group",31%
same,number of mice that survived,"S. aureus Mu50 infection; day 1, of 16 mice",12
same,number of mice that survived,"S. aureus Mu50 infection; day 2, of 16 mice",11
same,number of mice that survived,"S. aureus Mu50 infection; day 3, of 16 mice",10
same,number of mice that survived,"S. aureus Mu50 infection; day 4, of 16 mice",8
same,number of mice that survived,"S. aureus Mu50 infection; day 5, of 16 mice",6
same,number of mice that survived,"S. aureus Mu50 infection; day 6, of 16 mice",6
same,number of mice that survived,"S. aureus Mu50 infection; day 7, of 16 mice",5
same,number of mice that survived,"S. aureus Mu50 infection; day 8, of 16 mice",5
same,reduction of bacterial loads in the organs,S. aureus Mu50 infection; [4],100 fold
same,number of mice that survived,"E. coli K88 infection; day 1, of 16 mice",13
same,number of mice that survived,"E. coli K88 infection; day 2, of 16 mice",12
same,number of mice that survived,"E. coli K88 infection; day 3, of 16 mice",10
same,number of mice that survived,"E. coli K88 infection; day 4, of 16 mice",9
same,number of mice that survived,"E. coli K88 infection; day 5, of 16 mice",9
same,number of mice that survived,"E. coli K88 infection; day 6, of 16 mice",9
same,number of mice that survived,"E. coli K88 infection; day 7, of 16 mice",9
same,number of mice that survived,"E. coli K88 infection; day 8, of 16 mice",9
same,reduction of bacterial loads in the organs,E. coli K88 infection; [4],"1,000 fold"
same,"elevation in MIC values by cationic ions, E. coli K88",E. coli K88 [1],2–8 times
same,MBC P. aeruginosa ATCC27853,"P. aeruginosa ATCC27853; ATCC27853, 4 h",2 µM
same,MIC P. aeruginosa ATCC27853,"P. aeruginosa ATCC27853; ATCC27853, 24 h",2 µM
same,outer membrane permeability (NPN uptake),"[2]; 64 µM peptide, relative to 10 µg/mL polymyxin B = 100%",184.4%
same,membrane permeability,[2]; 1× MIC,approximately 80%
same,fold higher TIall vs kiadin-2,,2.5 fold
same,elevation of ROS production vs untreated,E. coli K88 [3],11.3 fold
